{"source": "the supplement of paper PMC10307832", "experiment_in_all_cases": "relative viability (nuclei count vs DMSO), 5 days (fraction); higher = more cells survive", "key": {"NCI-H2087": {"test_system": "NCI-H2087", "in_short": "(§1)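 Cells from lung cancer lines were seeded into 1536-well plates and, one day later, dosed by pin tool. Treatments were either a single drug or a fixed dose of an anchor drug with five library-drug doses (not always all listed) in √10 steps. After 5 days, nuclei were stained in a one-step fixation (final 0.05% Triton X-100, 1% formaldehyde, 1 ug/ml Hoechst) and counted on 4× images, and relative viability is the treated-to-vehicle nuclei ratio, as the median of duplicate plates.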"}, "NCI-H2126": {"test_system": "NCI-H2126", "in_short": "as §1"}, "NCI-H2347": {"test_system": "NCI-H2347", "in_short": "as §1"}, "NCI-H23": {"test_system": "NCI-H23", "in_short": "as §1"}, "NCI-H2405": {"test_system": "NCI-H2405", "in_short": "as §1"}, "NCI-H520": {"test_system": "NCI-H520", "in_short": "as §1"}, "NCI-H647": {"test_system": "NCI-H647", "in_short": "as §1"}, "NCI-H650": {"test_system": "NCI-H650", "in_short": "as §1"}, "NCI-H661": {"test_system": "NCI-H661", "in_short": "as §1"}, "PC-14": {"test_system": "PC-14", "in_short": "as §1"}, "RERF-LC-KJ": {"test_system": "RERF-LC-KJ", "in_short": "as §1"}}, "data": [{"smiles": "O=c1cc(-c2cccc3c2Sc2ccccc2S3)oc(N2CCOCC2)c1", "note": "+ C[C@@H](Oc1cc(-c2cnn(C3CCNCC3)c2)cnc1N)c1c(Cl)ccc(F)c1Cl [Crizotinib] (partner 1 µM)", "values": [{"measurement": "relative viability", "setting": "NCI-H2087; first compound 0.08 µM", "result": 0.982}, {"measurement": "relative viability", "setting": "NCI-H2087; first compound 0.253 µM", "result": 0.966}, {"measurement": "relative viability", "setting": "NCI-H2087; first compound 0.8 µM", "result": 1.12}, {"measurement": "relative viability", "setting": "NCI-H2087; first compound 2.53 µM", "result": 0.927}, {"measurement": "relative viability", "setting": "NCI-H2087; first compound 8 µM", "result": 1.01}, {"measurement": "relative viability", "setting": "NCI-H2126; first compound 0.08 µM", "result": 1.02}, {"measurement": "relative viability", "setting": "NCI-H2126; first compound 0.253 µM", "result": 1.09}, {"measurement": "relative viability", "setting": "NCI-H2126; first compound 0.8 µM", "result": 1.17}, {"measurement": "relative viability", "setting": "NCI-H2126; first compound 2.53 µM", "result": 0.994}, {"measurement": "relative viability", "setting": "NCI-H2126; first compound 8 µM", "result": 1.04}, {"measurement": "relative viability", "setting": "NCI-H2347; first compound 0.08 µM", "result": 0.654}, {"measurement": "relative viability", "setting": "NCI-H2347; first compound 0.253 µM", "result": 0.394}, {"measurement": "relative viability", "setting": "NCI-H2347; first compound 0.8 µM", "result": 0.738}, {"measurement": "relative viability", "setting": "NCI-H2347; first compound 2.53 µM", "result": 0.769}, {"measurement": "relative viability", "setting": "NCI-H2347; first compound 8 µM", "result": 0.711}, {"measurement": "relative viability", "setting": "NCI-H23; first compound 0.08 µM", "result": 0.442}, {"measurement": "relative viability", "setting": "NCI-H23; first compound 0.253 µM", "result": 0.564}, {"measurement": "relative viability", "setting": "NCI-H23; first compound 0.8 µM", "result": 0.626}, {"measurement": "relative viability", "setting": "NCI-H23; first compound 2.53 µM", "result": 0.572}, {"measurement": "relative viability", "setting": "NCI-H23; first compound 8 µM", "result": 0.522}, {"measurement": "relative viability", "setting": "NCI-H2405; first compound 0.08 µM", "result": 0.831}, {"measurement": "relative viability", "setting": "NCI-H2405; first compound 0.253 µM", "result": 0.887}, {"measurement": "relative viability", "setting": "NCI-H2405; first compound 0.8 µM", "result": 0.832}, {"measurement": "relative viability", "setting": "NCI-H2405; first compound 2.53 µM", "result": 0.759}, {"measurement": "relative viability", "setting": "NCI-H2405; first compound 8 µM", "result": 0.853}, {"measurement": "relative viability", "setting": "NCI-H520; first compound 0.08 µM", "result": 0.447}, {"measurement": "relative viability", "setting": "NCI-H520; first compound 0.253 µM", "result": 0.695}, {"measurement": "relative viability", "setting": "NCI-H520; first compound 0.8 µM", "result": 0.976}, {"measurement": "relative viability", "setting": "NCI-H520; first compound 2.53 µM", "result": 0.821}, {"measurement": "relative viability", "setting": "NCI-H520; first compound 8 µM", "result": 0.821}, {"measurement": "relative viability", "setting": "NCI-H647; first compound 0.08 µM", "result": 1.06}, {"measurement": "relative viability", "setting": "NCI-H647; first compound 0.253 µM", "result": 1.09}, {"measurement": "relative viability", "setting": "NCI-H647; first compound 0.8 µM", "result": 0.949}, {"measurement": "relative viability", "setting": "NCI-H647; first compound 2.53 µM", "result": 1.02}, {"measurement": "relative viability", "setting": "NCI-H647; first compound 8 µM", "result": 1.12}, {"measurement": "relative viability", "setting": "NCI-H650; first compound 0.08 µM", "result": 0.702}, {"measurement": "relative viability", "setting": "NCI-H650; first compound 0.253 µM", "result": 0.606}, {"measurement": "relative viability", "setting": "NCI-H650; first compound 0.8 µM", "result": 0.74}, {"measurement": "relative viability", "setting": "NCI-H650; first compound 2.53 µM", "result": 0.58}, {"measurement": "relative viability", "setting": "NCI-H650; first compound 8 µM", "result": 0.694}, {"measurement": "relative viability", "setting": "NCI-H661; first compound 0.08 µM", "result": 1.15}, {"measurement": "relative viability", "setting": "NCI-H661; first compound 0.253 µM", "result": 1.04}, {"measurement": "relative viability", "setting": "NCI-H661; first compound 0.8 µM", "result": 1.13}, {"measurement": "relative viability", "setting": "NCI-H661; first compound 2.53 µM", "result": 0.939}, {"measurement": "relative viability", "setting": "NCI-H661; first compound 8 µM", "result": 0.958}, {"measurement": "relative viability", "setting": "PC-14; first compound 0.08 µM", "result": 0.979}, {"measurement": "relative viability", "setting": "PC-14; first compound 0.253 µM", "result": 1.13}, {"measurement": "relative viability", "setting": "PC-14; first compound 0.8 µM", "result": 0.945}, {"measurement": "relative viability", "setting": "PC-14; first compound 2.53 µM", "result": 0.899}, {"measurement": "relative viability", "setting": "PC-14; first compound 8 µM", "result": 0.868}, {"measurement": "relative viability", "setting": "RERF-LC-KJ; first compound 0.08 µM", "result": 0.823}, {"measurement": "relative viability", "setting": "RERF-LC-KJ; first compound 0.253 µM", "result": 0.922}, {"measurement": "relative viability", "setting": "RERF-LC-KJ; first compound 0.8 µM", "result": 0.871}, {"measurement": "relative viability", "setting": "RERF-LC-KJ; first compound 2.53 µM", "result": 0.948}, {"measurement": "relative viability", "setting": "RERF-LC-KJ; first compound 8 µM", "result": 1.05}]}]}
